From ChEMBL document CHEMBL3885861, “Open TG-GATES”

Species: Rattus norvegicus
Assay: Open TG-GATES - Regimen: Daily Repeat
Type: toxicity, organism-based, Sprague-Dawley
Set-up: regimen Daily Repeat, gender Male, age 6 weeks
Conditions: in vivo, po, route gavage; for APTT / Bas / Eos / Fbg / Hb / Ht / Lym / MCH / MCHC / MCV / Mono / Neu / PT / Plat / RBC / Ret / WBC: tissue Blood; for KIDNEY_L / KIDNEY_R / KIDNEY_TOTAL: tissue Kidney; for LIVER: tissue Liver; for A/G / ALP / ALT / AST / BUN / CRE / Ca / Cl / DBIL / GLC / IP / K / LDH / Na / PL / RALB / TBIL / TC / TG / TP / gamma-GTP: tissue Plasma
[1] = 0 mg/kg, 72 h, dose level Control, time 3 day
[2] = 0 mg/kg, […], dose level Control, time 7 day
[3] = 0 mg/kg, […], dose level Control, time 14 day
[4] = 0 mg/kg, […], dose level Control, time 28 day
[5] = 100 mg/kg, 72 h, dose level Low, time 3 day
[6] = 100 mg/kg, […], dose level Low, time 7 day
[7] = 100 mg/kg, […], dose level Low, time 14 day
[8] = 100 mg/kg, […], dose level Low, time 28 day

CN/C(=N/CCSCc1nc[nH]c1C)NC#N [CIMETIDINE]
TERMINAL_BW [1]: 226.2 g
APTT [1]: 20.3 s
Bas [1]: 0.4%
Eos [1]: 0.6%
Fbg [1]: 220.2 mg/dL
Hb [1]: 13.5 g/dL
Ht [1]: 40.5%
Lym [1]: 84.6%
MCH [1]: 21 pg
MCHC [1]: 33.4%
MCV [1]: 63.1 fL
Mono [1]: 2.2%
Neu [1]: 11.2%
PT [1]: 12.7 s
Plat [1]: 132.2 x10_4/uL
RBC [1]: 642.2 x10_4/ul
Ret [1]: 6.3%
WBC [1]: 102.1 x10_2/uL
KIDNEY_L [1]: 1 g
KIDNEY_R [1]: 1 g
KIDNEY_TOTAL [1]: 2 g
LIVER [1]: 10.7 g
A/G [1]: 1.7
ALP [1]: 1069.6 IU/L
ALT [1]: 36.6 IU/L
AST [1]: 71 IU/L
BUN [1]: 14.4 mg/dL
CRE [1]: 0.4 mg/dL
Ca [1]: 10.7 mg/dL
Cl [1]: 102.8 meq/L
DBIL [1]: 0.1 mg/dL
GLC [1]: 198.2 mg/dL
IP [1]: 7.1 mg/dL
K [1]: 3.7 meq/L
LDH [1]: 150 IU/L
Na [1]: 141.2 meq/L
PL [1]: 158 mg/dL
RALB [1]: 3.5 g/dL
TBIL [1]: 0.2 mg/dL
TC [1]: 75.8 mg/dL
TG [1]: 103 mg/dL
TP [1]: 5.7 g/dL
gamma-GTP [1]: 1 IU/L
TERMINAL_BW [2]: 261.3 g
TERMINAL_BW [3]: 315.1 g
TERMINAL_BW [4]: 384.7 g
APTT [2]: 18.7 s
Bas [2]: 0.2%
Eos [2]: 0.6%
Fbg [2]: 228 mg/dL
Hb [2]: 14 g/dL
Ht [2]: 41.6%
Lym [2]: 80%
MCH [2]: 21.5 pg
MCHC [2]: 33.5%
MCV [2]: 64.2 fL
Mono [2]: 2.2%
Neu [2]: 15%
PT [2]: 12.1 s
Plat [2]: 129.9 x10_4/uL
RBC [2]: 649 x10_4/ul
Ret [2]: 5.8%
WBC [2]: 117.4 x10_2/uL
APTT [3]: 18.6 s
Bas [3]: 0%
Eos [3]: 0.8%
Fbg [3]: 218.6 mg/dL
Hb [3]: 14.3 g/dL
Ht [3]: 43.5%
Lym [3]: 79.2%
MCH [3]: 20 pg
MCHC [3]: 33%
MCV [3]: 60.7 fL
Mono [3]: 2.8%
Neu [3]: 16.8%
PT [3]: 12.1 s
Plat [3]: 129.1 x10_4/uL
RBC [3]: 717.8 x10_4/ul
Ret [3]: 4.6%
WBC [3]: 120.6 x10_2/uL
APTT [4]: 20.4 s
Bas [4]: 0%
Eos [4]: 1.2%
Fbg [4]: 205.8 mg/dL
Hb [4]: 15.1 g/dL
Ht [4]: 44.2%
Lym [4]: 79.2%
MCH [4]: 19.2 pg
MCHC [4]: 34.1%
MCV [4]: 56.4 fL
Mono [4]: 2.2%
Neu [4]: 16.6%
PT [4]: 12.9 s
Plat [4]: 99.1 x10_4/uL
RBC [4]: 784 x10_4/ul
Ret [4]: 2.6%
WBC [4]: 121.2 x10_2/uL
KIDNEY_L [2]: 1.1 g
KIDNEY_R [2]: 1.1 g
KIDNEY_TOTAL [2]: 2.1 g
KIDNEY_L [3]: 1.3 g
KIDNEY_R [3]: 1.2 g
KIDNEY_TOTAL [3]: 2.5 g
KIDNEY_L [4]: 1.5 g
KIDNEY_R [4]: 1.5 g
KIDNEY_TOTAL [4]: 2.9 g
LIVER [2]: 12.5 g
LIVER [3]: 14.1 g
LIVER [4]: 15.5 g
A/G [2]: 1.5
ALP [2]: 1067.6 IU/L
ALT [2]: 33.2 IU/L
AST [2]: 62.4 IU/L
BUN [2]: 16.6 mg/dL
CRE [2]: 0.4 mg/dL
Ca [2]: 10.7 mg/dL
Cl [2]: 103.2 meq/L
DBIL [2]: 0.1 mg/dL
GLC [2]: 236.6 mg/dL
IP [2]: 8 mg/dL
K [2]: 3.9 meq/L
LDH [2]: 165.2 IU/L
Na [2]: 141.2 meq/L
PL [2]: 156.4 mg/dL
RALB [2]: 3.4 g/dL
TBIL [2]: 0.2 mg/dL
TC [2]: 73.6 mg/dL
TG [2]: 138.8 mg/dL
TP [2]: 5.7 g/dL
gamma-GTP [2]: 1 IU/L
A/G [3]: 1.4
ALP [3]: 861.4 IU/L
ALT [3]: 41.4 IU/L
AST [3]: 72.8 IU/L
BUN [3]: 17 mg/dL
CRE [3]: 0.4 mg/dL
Ca [3]: 10.6 mg/dL
Cl [3]: 102.6 meq/L
DBIL [3]: 0.1 mg/dL
GLC [3]: 215.2 mg/dL
IP [3]: 7.4 mg/dL
K [3]: 4.1 meq/L
LDH [3]: 169.6 IU/L
Na [3]: 141.4 meq/L
PL [3]: 155.6 mg/dL
RALB [3]: 3.4 g/dL
TBIL [3]: 0.2 mg/dL
TC [3]: 70.8 mg/dL
TG [3]: 168.4 mg/dL
TP [3]: 5.9 g/dL
gamma-GTP [3]: 1 IU/L
A/G [4]: 1.2
ALP [4]: 772.6 IU/L
ALT [4]: 31 IU/L
AST [4]: 59.6 IU/L
BUN [4]: 16.2 mg/dL
CRE [4]: 0.5 mg/dL
Ca [4]: 10.1 mg/dL
Cl [4]: 102.4 meq/L
DBIL [4]: 0.1 mg/dL
GLC [4]: 235.6 mg/dL
IP [4]: 6.6 mg/dL
K [4]: 3.6 meq/L
LDH [4]: 151.6 IU/L
Na [4]: 140.6 meq/L
PL [4]: 137.4 mg/dL
RALB [4]: 3.3 g/dL
TBIL [4]: 0.2 mg/dL
TC [4]: 61.8 mg/dL
TG [4]: 119.8 mg/dL
TP [4]: 6 g/dL
gamma-GTP [4]: 1 IU/L
TERMINAL_BW [5]: 228.3 g
APTT [5]: 18 s
Bas [5]: 0.2%
Eos [5]: 1%
Fbg [5]: 220 mg/dL
Hb [5]: 12.8 g/dL
Ht [5]: 38.6%
Lym [5]: 77.6%
MCH [5]: 21.1 pg
MCHC [5]: 33.2%
MCV [5]: 63.6 fL
Mono [5]: 2.6%
Neu [5]: 17.4%
PT [5]: 12.6 s
Plat [5]: 127.7 x10_4/uL
RBC [5]: 607 x10_4/ul
Ret [5]: 6.9%
WBC [5]: 97.9 x10_2/uL
KIDNEY_L [5]: 1 g
KIDNEY_R [5]: 1 g
KIDNEY_TOTAL [5]: 2 g
LIVER [5]: 10.7 g
A/G [5]: 1.5
ALP [5]: 1125.6 IU/L
ALT [5]: 37 IU/L
AST [5]: 66.4 IU/L
BUN [5]: 14.8 mg/dL
CRE [5]: 0.4 mg/dL
Ca [5]: 10.9 mg/dL
Cl [5]: 103.2 meq/L
DBIL [5]: 0.1 mg/dL
GLC [5]: 195.6 mg/dL
IP [5]: 7.1 mg/dL
K [5]: 4.2 meq/L
LDH [5]: 137.8 IU/L
Na [5]: 140.8 meq/L
PL [5]: 155.8 mg/dL
RALB [5]: 3.4 g/dL
TBIL [5]: 0.2 mg/dL
TC [5]: 78.6 mg/dL
TG [5]: 109.8 mg/dL
TP [5]: 5.6 g/dL
gamma-GTP [5]: 1.2 IU/L
TERMINAL_BW [6]: 260 g
TERMINAL_BW [7]: 308.9 g
TERMINAL_BW [8]: 402.8 g
APTT [6]: 18.3 s
Bas [6]: 0.2%
Eos [6]: 0.8%
Fbg [6]: 227.6 mg/dL
Hb [6]: 13.5 g/dL
Ht [6]: 40.3%
Lym [6]: 81.6%
MCH [6]: 20.8 pg
MCHC [6]: 33.4%
MCV [6]: 62.2 fL
Mono [6]: 2%
Neu [6]: 14.6%
PT [6]: 12.2 s
Plat [6]: 126 x10_4/uL
RBC [6]: 648.2 x10_4/ul
Ret [6]: 5.4%
WBC [6]: 111.1 x10_2/uL
APTT [7]: 19.3 s
Bas [7]: 0%
Eos [7]: 1%
Fbg [7]: 219.2 mg/dL
Hb [7]: 14.4 g/dL
Ht [7]: 43.9%
Lym [7]: 83.8%
MCH [7]: 19.5 pg
MCHC [7]: 32.8%
MCV [7]: 59.5 fL
Mono [7]: 2.2%
Neu [7]: 13%
PT [7]: 12.7 s
Plat [7]: 120.2 x10_4/uL
RBC [7]: 737.8 x10_4/ul
Ret [7]: 3.9%
WBC [7]: 93.7 x10_2/uL
APTT [8]: 19.7 s
Bas [8]: 0.2%
Eos [8]: 1.2%
Fbg [8]: 217.4 mg/dL
Hb [8]: 14.6 g/dL
Ht [8]: 42.3%
Lym [8]: 79.4%
MCH [8]: 19.2 pg
MCHC [8]: 34.5%
MCV [8]: 55.8 fL
Mono [8]: 2.8%
Neu [8]: 15.6%
PT [8]: 12.9 s
Plat [8]: 114 x10_4/uL
RBC [8]: 758.2 x10_4/ul
Ret [8]: 2.8%
WBC [8]: 137.9 x10_2/uL
KIDNEY_L [6]: 1.1 g
KIDNEY_R [6]: 1.1 g
KIDNEY_TOTAL [6]: 2.2 g
KIDNEY_L [7]: 1.2 g
KIDNEY_R [7]: 1.3 g
KIDNEY_TOTAL [7]: 2.5 g
KIDNEY_L [8]: 1.4 g
KIDNEY_R [8]: 1.4 g
KIDNEY_TOTAL [8]: 2.8 g
LIVER [6]: 13 g
LIVER [7]: 13.9 g
LIVER [8]: 17.6 g
A/G [6]: 1.5
ALP [6]: 831 IU/L
ALT [6]: 34.8 IU/L
AST [6]: 64.2 IU/L
BUN [6]: 16.6 mg/dL
CRE [6]: 0.4 mg/dL
Ca [6]: 10.7 mg/dL
Cl [6]: 102 meq/L
DBIL [6]: 0.096 mg/dL
GLC [6]: 252.8 mg/dL
IP [6]: 7.8 mg/dL
K [6]: 4 meq/L
LDH [6]: 155 IU/L
Na [6]: 139.6 meq/L
PL [6]: 161 mg/dL
RALB [6]: 3.3 g/dL
TBIL [6]: 0.1 mg/dL
TC [6]: 78.8 mg/dL
TG [6]: 121 mg/dL
TP [6]: 5.6 g/dL
gamma-GTP [6]: 1.2 IU/L
A/G [7]: 1.4
ALP [7]: 969.6 IU/L
ALT [7]: 42 IU/L
AST [7]: 74.8 IU/L
BUN [7]: 17.6 mg/dL
CRE [7]: 0.4 mg/dL
Ca [7]: 10.5 mg/dL
Cl [7]: 102 meq/L
DBIL [7]: 0.1 mg/dL
GLC [7]: 205.2 mg/dL
IP [7]: 7.1 mg/dL
K [7]: 4 meq/L
LDH [7]: 210.8 IU/L
Na [7]: 141.4 meq/L
PL [7]: 142.2 mg/dL
RALB [7]: 3.4 g/dL
TBIL [7]: 0.2 mg/dL
TC [7]: 62.8 mg/dL
TG [7]: 137.8 mg/dL
TP [7]: 5.9 g/dL
gamma-GTP [7]: 0.8 IU/L
A/G [8]: 1.4
ALP [8]: 672 IU/L
ALT [8]: 35.4 IU/L
AST [8]: 66.4 IU/L
BUN [8]: 18.6 mg/dL
CRE [8]: 0.6 mg/dL
Ca [8]: 10.3 mg/dL
Cl [8]: 101.6 meq/L
DBIL [8]: 0.1 mg/dL
GLC [8]: 264.2 mg/dL
IP [8]: 6.9 mg/dL
K [8]: 3.5 meq/L
LDH [8]: 186 IU/L
Na [8]: 140.4 meq/L
PL [8]: 150.8 mg/dL
RALB [8]: 3.5 g/dL
TBIL [8]: 0.2 mg/dL
TC [8]: 70.2 mg/dL
TG [8]: 167.4 mg/dL
TP [8]: 6 g/dL
gamma-GTP [8]: 1.2 IU/L
